Reference: patent publication US11692028B2, “Map kinase pathway targets for the treatment of Marfan syndrome” (The Johns Hopkins University, priority 2017, dated 2023)

Key:
[1] = test system: TGFβ signal transduction (p-SMAD2); settings: measured by p-SMAD2 western blot analysis; cited from earlier work
[2] = test system: 129 MFS mice (Fbn1C1039G/+ on 129S6/SvEvTac background); experiment: Survival / premature lethality from aortic dissection in 129 MFS mice; assay type: in vivo, mouse; settings: losartan, up to 8 months of treatment, FIG. 2C
Description: Mice were cared for under compliance with the Animal Care and Use Committee of the Johns Hopkins University School of Medicine. Fbn1^C1039G/+ mice on a pure C57BL/6J background were already onsite. Mice on a pure 129S6/SvEvTac background were obtained from Taconic Biosciences (Rensselaer County, N.Y., USA). The Fbn1^C1039G/+ mice on a pure C57BL/6J background were bred into a pure 129S6/SvEvTac background and backcrossed for >10 generations. Mice haploinsufficient or knockout for Mmp17 (B6.129P2-Mmp17^rm1Dg^en/J; #005824), Map2k6 (B6.129S1-Map2k6^tm1Flv/J; #008382) and Map3k4 (B6.129S6-Map3k4^tm1Flv/J; #008375) were obtained from the Jackson Laboratory (Bar Harbor, Me., USA), and bred to Fbn1C1039G/+ mice. Animals were checked daily for death and all mice found dead were immediately autopsied to assess for evidence of aortic dissection. Mice that were sacrificed were done so using a lethal dose of ketamine and acepromazine (1 ml of 10 mg/ml acepromazine in 10 mls of 100 mg/ml ketamine; MWI Vet, ID, USA). At the time of sacrifice, mice underwent immediate laparotomy and descending abdominal aortic transection. Phosphate buffered saline (PBS) was infused through the right and left ventricles to flush out the blood. […]

[3] = test system: Fbn1C1039G/+ mice (MFS mice); settings: cited from earlier work; for aortic disease in MFS mice: literature (Habashi 2006; Holm 2011; Habashi 2011; Doyle 2015)
[4] = test system: pSmad2, pErk1/2, pp38, pEgfr; experiment: Western blot analysis of the aortic root of treated 129 MFS mice; assay type: in vivo, mouse; settings: for signaling cascade activation in aortic root (Western blot): treated 129 MFS mice at 4 months of age, FIG. 2E, 3G
Description: Losartan was dissolved in drinking water and filtered to reach a concentration of 0.6 g/L, giving an estimated daily dose of 60 mg/kg/day, as described previously (Habashi, J. P. et al. Science 312, 117-21 (2006)). Mice were started on losartan at 2 months of age and continued for 8 months. Placebo-treated animals received regular drinking water. RDEA119 was reconstituted in 10% 2-hydroxypropyl-beta-cyclodextrin (Sigma-Aldrich, Mo., USA) dissolved in PBS, and administered twice daily by oral gavage at a dose of 25 mg/kg, as described previously (Holm, T. M. et al. Science 15, 358-61 (2011)). Treatment was initiated at 2 months of age and continued for 2 months. 10% 2-hydroxypropyl-beta-cyclodextrin dissolved in PBS was administered as a control. Erlotinib was reconstituted in 1% methylcellulose (Sigma-Aldrich) dissolved in PBS, and administered daily by oral gavage at a dose of 50 mg/kg. Treatment was initiated at 2 months of age and continued for 2 months. 1% methylcellulose dissolved in PBS was administered as a control. Mice that were sacrificed for Western Blot analysis had their proximal ascending aortas immediately dissected, flash frozen in liquid nitrogen and stored at -80° C. until further processing. Protein was extracted using the reagents and protocol from a Total Protein Extraction Kit containing protease inhibitor and Protein Phosphatase Inhibitor Cocktail (Millipore, Mass., USA). Aortas were homogenized using a pellet pestle motor (Kimble-Kontes, N.J., USA) as per the extraction kit protocol. Samples were then stored once more at -80° C. until Western blot analysis was performed. […] PBS-T). Equal protein loading of samples was determined by a protein assay (Bio-Rad, Calif., USA) and confirmed by probing with an antibody against β-Actin (Sigma-Aldrich #A5316). […] Blots were then washed in PBS-T, developed using SuperSignal West Femto HRP substrate (Pierce Scientific, Ill., USA), exposed to BioMax Scientific Imaging Film (Sigma), and quantified using ImageJ analysis software (NIH, Md., USA).

[5] = test system: 129 MFS mice (Fbn1C1039G/+ on 129S6/SvEvTac background); experiment: Aortic root growth by echocardiography in drug-treated 129 MFS mice; assay type: in vivo, mouse; settings: for aortic root growth: FIG. 2B
Description: Losartan was dissolved in drinking water and filtered to reach a concentration of 0.6 g/L, giving an estimated daily dose of 60 mg/kg/day, as described previously (Habashi, J. P. et al. Science 312, 117-21 (2006)). Mice were started on losartan at 2 months of age and continued for 8 months. Placebo-treated animals received regular drinking water. RDEA119 was reconstituted in 10% 2-hydroxypropyl-beta-cyclodextrin (Sigma-Aldrich, Mo., USA) dissolved in PBS, and administered twice daily by oral gavage at a dose of 25 mg/kg, as described previously (Holm, T. M. et al. Science 15, 358-61 (2011)). Treatment was initiated at 2 months of age and continued for 2 months. 10% 2-hydroxypropyl-beta-cyclodextrin dissolved in PBS was administered as a control. Erlotinib was reconstituted in 1% methylcellulose (Sigma-Aldrich) dissolved in PBS, and administered daily by oral gavage at a dose of 50 mg/kg. Treatment was initiated at 2 months of age and continued for 2 months. 1% methylcellulose dissolved in PBS was administered as a control.
Mouse echocardiography: Nair hair removal cream was used on all mice the day prior to echocardiography. All echocardiograms were performed on awake, unsedated mice using the VisualSonics Vevo 2100 imaging system and a 30 MHz transducer (Fujifilm VisualSonics, ON, Canada). The aorta was imaged using a parasternal, long-axis view. Three separate measurements of the maximal internal dimension at the sinus of Valsalva and proximal ascending aorta were made from distinct captured images and averaged. All imaging and measurements were performed blinded to genotype and treatment arm.

[6] = test system: patients with MFS; settings: literature (Lacro et al., NEJM 371, 2061); cited from earlier work
[7] = test system: TGFβ induction in vascular tissues; settings: literature; cited from earlier work
[8] = oral gavage from 2 to 4 months of age (RDEA119 25 mg/kg twice daily; erlotinib 50 mg/kg daily), 3F

Row | Compound | aortic disease in MFS mice [3] | all aortic parameters (aortic root size, post-natal aortic root growth, premature lethality from dissection) [5] | signaling cascade activation in aortic root (Western blot) [4] | aortic root growth [5, 8] | further results
1 | Fc1ccc(Cl)cc1-c1nc(Nc2ccncc2)c2nccnc2n1 [SD-208] |  |  |  |  | TGFβ signal transduction [1]: inhibits TGFβ signal transduction in a dose-dependent fashion
2 | CCCCc1nc(Cl)c(CO)n1Cc1ccc(-c2ccccc2-c2nn[nH]n2)cc1 [losartan] | can suppress aortic disease in MFS mice | fully rescued |  |  | premature lethality (survival) [2]: ameliorated premature lethality; multiple phenotypic manifestations (aortic aneurysm, developmental emphysema, mitral valve disease, skeletal muscle myopathy) ([3]; Fbn1C1039G/+ mice, in association with blunted Smad2/3 activation, literature): can be attenuated; TGFβ signaling cascades in aortic root (Western blot) ([4]; losartan-treated 129 MFS mice at 10 months of age, FIG. 2D): reduction in both canonical (Smad2) and noncanonical (Erk1/2, p38) TGFβ signaling cascades; aortic root growth ([5]; losartan 0.6 g/L in drinking water (est. 60 mg/kg/day), growth from 2 to 6 months): reduced aortic root growth to a rate equal to that of WT animals; aortic root growth in patients with MFS [6]: some degree of rescue of aortic root growth
3 | COc1cc(F)c(F)c(Nc2ccc(I)cc2F)c1NS(=O)(=O)C1(C[C@H](O)CO)CC1 [RDEA119] | can suppress aortic disease in MFS mice | fully rescued | selective reduction in noncanonical (Erk1/2, p38) cascades | reduced aortic root growth to a rate equal to that of WT animals | 
4 | C#Cc1cccc(Nc2ncnc3cc(OCCOC)c(OCCOC)cc23)c1 [erlotinib] |  |  | reduced activation of Egfr, Erk1/2, and p38 | abrogated aortic root growth | Ang-II infusion-mediated TGFβ induction in vascular tissues [7]: can abrogate Ang-II infusion-mediated TGFβ induction in vascular tissues
